Experiments:
Type in all cases: in vivo
Lolium perenne (LOLPE) [1] = test: Pre-emergence herbicidal activity (B1); settings: Test 1b, 1000 g/ha, evaluated after 13 days, 5=total damage to plant, 0=no damage to plant
Method: (§1) B1 Pre-Emergence Herbicidal Activity Seeds of a variety of test species were sown in standard soil in pots: Triticum aestivium (TRZAW), Avena fatua (AVEFA), Alopecurus myosuroides (ALOMY), Echinochloa crus-galli (ECHCG), Lolium perenne (LOLPE), Zea Mays (ZEAMX), Abutilon theophrasti (ABUTH), Amaranthus retroflexus (AMARE) and Setaria faberi (SETFA). After cultivation for one day (pre-emergence) under controlled conditions in a glasshouse (at 24/16° C., day/night; 14 hours light; 65% humidity), the plants were sprayed with an aqueous spray solution derived from the formulation of the technical active ingredient in acetone/water (50:50) solution containing 0.5% Tween 20 (polyoxyethelyene sorbitan monolaurate, CAS RN 9005-64-5). The test plants were then grown in a glasshouse under controlled conditions (at 24/16° C., day/night; 14 hours light; 65% humidity) and watered twice daily. After 13 days, the test was evaluated (5=total damage to plant; 0=no damage to plant). Tables B1a and B1b Control of Weed Species by Compound of Formula (I) after Pre-Emergence Application

[2] = test system: Abutilon theophrasti (ABUTH); test: Pre-emergence herbicidal activity (B1); settings: Test 1b, 1000 g/ha, evaluated after 13 days, 5=total damage to plant, 0=no damage to plant
Method: as §1

Setaria faberi (SETFA) [3] = test: Pre-emergence herbicidal activity (B1); settings: Test 1b, 1000 g/ha, evaluated after 13 days, 5=total damage to plant, 0=no damage to plant
Method: as §1

[4] = test system: Echinochloa crus-galli (ECHCG); test: Pre-emergence herbicidal activity (B1); settings: Test 1b, 1000 g/ha, evaluated after 13 days, 5=total damage to plant, 0=no damage to plant
Method: as §1

Zea Mays (ZEAMX) [5] = test: Pre-emergence herbicidal activity (B1); settings: Test 1b, 1000 g/ha, evaluated after 13 days, 5=total damage to plant, 0=no damage to plant
Method: as §1

[6] = test system: Amaranthus retroflexus (AMARE); test: Pre-emergence herbicidal activity (B1); settings: Test 1b, 1000 g/ha, evaluated after 13 days, 5=total damage to plant, 0=no damage to plant
Method: as §1

Lolium perenne (LOLPE) [7] = test: Post-emergence herbicidal activity (B2); settings: Test B2b, 1000 g/ha, evaluated after 13 days, 5=total damage to plant, 0=no damage to plant
Method: (§2) B2 Post-Emergence Herbicidal Activity Seeds of a variety of test species were sown in standard soil in pots: Triticum aestivium (TRZAW), Avena fatua (AVEFA), Alopecurus myosuroides (ALOMY), Echinochloa crus-galli (ECHCG), Lolium perenne (LOLPE), Zea Mays (ZEAMX), Abutilon theophrasti (ABUTH), Amaranthus retroflexus (AMARE) and Setaria faberi (SETFA). After 8 days cultivation (post-emergence) under controlled conditions in a glasshouse (at 24/16° C., day/night; 14 hours light; 65% humidity), the plants were sprayed with an aqueous spray solution derived from the formulation of the technical active ingredient in acetone/water (50:50) solution containing 0.5% Tween 20 (polyoxyethelyene sorbitan monolaurate, CAS RN 9005-64-5). The test plants were then grown in a glasshouse under controlled conditions (at 24/16° C., day/night; 14 hours light; 65% humidity) and watered twice daily. After 13 days, the test was evaluated (5=total damage to plant; 0=no damage to plant). Tables B2a and B2b Control of Weed Species by Compound of Formula (I) after Post-Emergence Application

[8] = test system: Abutilon theophrasti (ABUTH); test: Post-emergence herbicidal activity (B2); settings: Test B2b, 1000 g/ha, evaluated after 13 days, 5=total damage to plant, 0=no damage to plant
Method: as §2

Setaria faberi (SETFA) [9] = test: Post-emergence herbicidal activity (B2); settings: Test B2b, 1000 g/ha, evaluated after 13 days, 5=total damage to plant, 0=no damage to plant
Method: as §2

[10] = test system: Echinochloa crus-galli (ECHCG); test: Post-emergence herbicidal activity (B2); settings: Test B2b, 1000 g/ha, evaluated after 13 days, 5=total damage to plant, 0=no damage to plant
Method: as §2

Zea Mays (ZEAMX) [11] = test: Post-emergence herbicidal activity (B2); settings: Test B2b, 1000 g/ha, evaluated after 13 days, 5=total damage to plant, 0=no damage to plant
Method: as §2

[12] = test system: Amaranthus retroflexus (AMARE); test: Post-emergence herbicidal activity (B2); settings: Test B2b, 1000 g/ha, evaluated after 13 days, 5=total damage to plant, 0=no damage to plant
Method: as §2

Row | Structure (SMILES) | LOLPE damage score (Lolium perenne (LOLPE) [1]) | ABUTH damage score [2] | SETFA damage score (Setaria faberi (SETFA) [3]) | ECHCG damage score [4] | ZEAMX damage score (Zea Mays (ZEAMX) [5]) | AMARE damage score [6] | LOLPE damage score (Lolium perenne (LOLPE) [7]) | ABUTH damage score [8] | SETFA damage score (Setaria faberi (SETFA) [9]) | ECHCG damage score [10] | ZEAMX damage score (Zea Mays (ZEAMX) [11]) | AMARE damage score [12]
1 | Fc1cncc(-c2ccc(NCc3cccc(Cl)c3)c(C(F)(F)F)n2)c1 [Compound A18] | 0 | 0 | 4 | 2 | 4 | 0 | 2 | 0 | 5 | 3 | 5 | 0
2 | COc1cncc(-c2ccc(N)c(C)n2)c1 [Compound A13] | 0 | 0 | 0 | 0 | 0 | 0 | 0 | 0 | 1 | 1 | 2 | 1
3 | CNc1ccc(-c2cncc(C(F)(F)F)c2)nc1C(F)(F)F [Compound A7] | 0 | 1 | 3 | 0 | 0 | 1 | 1 | 0 | 3 | 1 | 1 | 1
4 | Fc1cncc(-c2ccc(NCc3ccc(F)cc3F)c(C(F)(F)F)n2)c1 [Compound A28] | 0 | 0 | 4 | 2 | 2 | 0 | 2 | 0 | 5 | 3 | 5 | 1
5 | Cc1nc(-c2cncnc2)ccc1N [Compound A14] | 1 | 0 | 2 | 1 | 1 | 0 | 1 | 0 | 3 | 2 | 2 | 2
6 | Fc1cncc(-c2ccc(Nc3ccccc3)c(C(F)(F)F)n2)c1 [Compound A32, 6-(5-fluoro-3-pyridyl)-N-phenyl-2-(trifluoromethyl)pyridin-3-amine] | 1 | 1 | 5 | 4 | 1 | 1 | 3 | 0 | 5 | 4 | 4 | 0
7 | CC#CCNc1ccc(-c2cncc(F)c2)nc1C(F)(F)F [Compound A30] | 2 | 0 | 5 | 4 | 5 | 2 | 4 | 2 | 5 | 5 | 5 | 2
8 | CNc1ccc(-c2cncnc2)nc1C [Compound A15] | 0 | 0 | 1 | 1 | 1 | 0 | 1 | 0 | 2 | 2 | 1 | 1
